Experiment: Parallel artificial membrane permeability assay
Format: in vitro ADME
Conditions: result in words

| SMILES | permeability by PAMPA |
| --- | --- |
| Cc1ccc(CNC(=O)[C@@H]2Cc3cccc(c3)Oc3cccc(c3)C[C@H](N)C(=O)N[C@@H](CCc3ccccc3)C(=O)N2)cc1 [CP1, (5S,8S,11S)-11-amino-N-(4-methylbenzyl)-7,10-dioxo-8-phenethyl-2-oxa-6,9-diaza-1,3(1,3)-dibenzenacyclododecaphane-5-carboxamide] | undetectable |
| O=C(NC1CCCC1)[C@@H]1CCCCOc2cccc(c2)C[C@H](N2CCCC2=O)C(=O)N[C@@H](CCN2CCOCC2)C(=O)N1 [TDI8304] | modest |
